Read-outs that look alike come from different tables or passages of the source.
Legend:
[1] = test system: testosterone level in NCI-H295R cells; experiment: cells; assay type: cell-based; conditions: for inhibition at 0.1 µM / inhibition at 1 µM / IC50: Homo sapiens, NCI-H295R, 72 h; for IC50: read-out: Testosterone level in H295R (Elisa) IC50 nM
Experimental: The purpose of the experimental study was intended to detect the testosterone level in the NCI-H295R cells by adopting the Enzyme linked immunosorbent assay (ELISA), so as to evaluate the inhibitory effects of the compounds on the testosterone level in the NCI-H295R cells.
The H295R cells were purchased from ATCC, the cell complete medium contained DMEM: F12+ 10% FBS +0.00625 mg/ml insulin +0.00625 mg/ml transferrin+6.25 ng/ml selenium +1.25 mg/ml BSA+0.00535 mg/ml linoleic acid, and the cells were cultured in a 37°C, 5% CO2 incubator. The cells in the exponential growth phase were collected, and cultured in a cytokine-free medium (phenol red 1640-free +1% PS+10% css FBS+1.25 mg/ml BSA +0.00625 mg/ml insulin + 0.00625 mg/ml transferrin+6.25 ng/ml selenium+0.00535 mg/ml linoleic acid) for three days. The cells in the exponential growth phase were collected on the third day. The cell suspension was adjusted with a cytokine-free medium to a corresponding concentration and plated at 60000 cells/well, with the volume being 90 µL/well. Subsequently, 10 µL of the compounds at different concentrations was added and the plate was incubated in a CO2 incubator for three days. After the incubation was completed, according to the operation instructions for testosterone Elisa kit (Beyotime, PT872), 50 µL of the cell culture supernatant was collected from each well and centrifuged at 500 g for 5 min at room temperature and then the resulting supernatant was collected. The samples were added to the corresponding wells at 25 µl/well, and then formulated horseradish peroxidase labelled testosterone was added at 75 µl/well. The mixture was fully mixed for 10 seconds. The reaction wells were sealed with a plate-sealing film (white) and the mixture was incubated at room temperature in the dark for 120 min. The plate was washed three times with a volume of 300 µl per well, and then placed onto thick absorbent paper and dried. Chromogenic reagent TMB solution was added at 100 µl/well. The reaction wells were sealed with a plate-sealing film (white) and the mixture was incubated at room temperature in the dark for 15-20 min. Subsequently, a termination solution was added at 50 µl/well, and after the mixture was fully mixed, the absorbance value OD450 was immediately measured. The absorbance readings were processed using Graphpad Prim 8.0 software and S-shaped concentration curves were plotted and the IC50 values were calculated using a four-parameter non-linear regression model.

[2] = Pharmacokinetic test in rats; assay type: in vivo; conditions: rat, male SD rats, plasma; for Vd: read-out: Vdss
Experimental: 3.1 Experimental animals: Male SD rats (about 220 g, 6-8 weeks old, 6 rats/compound) were purchased from Chengdu Dossy Experimental Animals Co., Ltd.
3.2 Experimental design: On the day of the experiment, the SD rats were randomly grouped by body weight. […] Table 4 Administration information
Before and after the administration, 0.1 ml of blood was taken from the orbit of the animals under isoflurane anaesthesia and placed in an EDTAK2 centrifuge tube. The blood was centrifuged at 5000 rpm and 4°C for 10 min to collect plasma. […] Before analysis and detection, all samples were stored at -80°C. Table 5 Pharmacokinetic parameters of test compounds in plasma of rats

[3] = read-out: Testosterone level in H295R (Elisa) inh.% 100 nM, 100 nM compound, NCI-H295R cells, three days incubation
[4] = read-out: Testosterone level in H295R (Elisa) inh.% 1000 nM, 1000 nM compound, NCI-H295R cells, three days incubation
[5] = po, intragastric administration (10 mg/kg)
[6] = intravenous administration (2.5 mg/kg)
[7] = read-out: Testosterone level in H295R (Elisa) inh.% 100 nM
[8] = read-out: Testosterone level in H295R (Elisa) inh.% 1000 nM

Row | Compound | inhibition at 0.1 µM [1, 3] [%] | inhibition at 1 µM [1, 4] [%] | further results
1 | O=C(N[C@H]1CC[C@H](C(=O)Nc2coc(CN3Cc4ccc(C(F)(F)F)cc4C3)cc2=O)CC1)C1CC1 [Compound 119] | 60 | 81 | –
2 | O=C(OC1CC1)N1CCC(COc2coc(CN3Cc4ccc(OC5CCC5)cc4C3)cc2=O)CC1 [Compound 49] | 67.3 | 75.2 | –
3 | O=C(OC1CC1)N1CCC(/C=C/c2coc(CN3Cc4ccc(C(F)(F)F)cc4C3)cc2=O)CC1 [Compound 31] | – | – | AUC(0-t) [2, 5]: 13400 ng·h/mL; half-life [2, 5]: 5.65 h; AUC(0-t) [2, 6]: 4270 ng·h/mL; clearance [2, 6]: 9.48 mL/min/kg; half-life [2, 6]: 5.16 h; Vd [2, 6]: 3.41 L/kg
4 | Cc1nc(C(=O)N[C@H]2CC[C@H](COc3coc(CN4Cc5ccc(OC6CC6)cc5C4)cc3=O)CC2)cs1 [Compound 47] | 72.2 | 69.3 | –
5 | O=C(CC(F)(F)F)N[C@H]1CC[C@H](/C=C/c2coc(CN3Cc4ccc(C(F)(F)F)cc4C3)cc2=O)CC1 [Compound 102] | 79 | 82 | –
6 | O=C(OC1CC1)N1CCC(COc2coc(CN3Cc4ccc(C(F)(F)F)cc4C3)cc2=O)CC1 [Compound 32] | 76.1 | 64.3 | IC50 [1]: 117 nM
7 | O=C(N[C@H]1CC[C@H](COc2coc(CN3Cc4ccc(C(F)(F)F)cc4C3)cc2=O)CC1)[C@H]1CC1(F)F [Compound 65] | 80 | 78 | –
8 | O=C(N[C@H]1CC[C@H](COc2coc(CN3Cc4ccc(C(F)(F)F)cc4C3)cc2=O)CC1)C1COC1 [Compound 63] | – | – | AUC(0-t) [2, 5]: 19100 ng·h/mL; half-life [2, 5]: 2.18 h; inhibition at 0.1 µM [1, 7]: 64%; inhibition at 1 µM [1, 8]: 75%
9 | O=C(N[C@H]1CC[C@H](CCc2coc(CN3Cc4ccc(C(F)(F)F)cc4C3)cc2=O)CC1)[C@H]1CC1(F)F [Compound 113] | 76 | 77 | –
10 | CC(OC(=O)N1CCC(COc2coc(CN3Cc4ccc(C(F)(F)F)cc4C3)cc2=O)CC1)C(F)(F)F (single isomer, unassigned) [Compound 56] | 53.6 | 79.3 | –
11 | CS(=O)(=O)N1CCC2(CC1)CC(C(=O)N1CCC(COc3coc(CN4Cc5ccc(C(F)(F)F)cc5C4)cc3=O)CC1)C2 [Compound 75] | 69 | 78 | –
12 | O=c1cc(CN2Cc3ccc(C(F)(F)F)cc3C2)occ1/C=C/[C@H]1CC[C@H](NC(=O)[C@H]2C[C@H](F)C2)CC1 [Compound 101] | – | – | AUC(0-t) [2, 5]: 11600 ng·h/mL; half-life [2, 5]: 3.59 h; AUC(0-t) [2, 6]: 5640 ng·h/mL; clearance [2, 6]: 7.45 mL/min/kg; half-life [2, 6]: 2.96 h; Vd [2, 6]: 1.47 L/kg; inhibition at 0.1 µM [1, 7]: 73%; inhibition at 1 µM [1, 8]: 71%
13 | Cn1ncc(C(=O)N[C@H]2CC[C@H](/C=C/c3coc(CN4Cc5ccc(C(F)(F)F)cc5C4)cc3=O)CC2)c1F [Compound 106] | 69 | 93 | –
14 | CC1(NC2CCC(/C=C/c3coc(CN4Cc5ccc(C(F)(F)F)cc5C4)cc3=O)CC2)COC1 (single isomer, unassigned) [Compound 122] | 63 | 82 | –
15 | CC(F)(F)C(=O)N[C@H]1CC[C@H](/C=C/c2coc(CN3Cc4ccc(C(F)(F)F)cc4C3)cc2=O)CC1 [Compound 108] | 75 | 84 | –
16 | O=c1cc(CN2Cc3ccc(C(F)(F)F)cc3C2)occ1/C=C/[C@H]1CC[C@H](NS(=O)(=O)CC2CC2)CC1 [Compound 62] | 67 | 79 | –
17 | CS(=O)(=O)N1CCC2(CC1)CC2C(=O)N1CCC(COc2coc(CN3Cc4ccc(C(F)(F)F)cc4C3)cc2=O)CC1 (single isomer, unassigned) [Compound 70] | – | – | Testosterone level in H295R (Elisa) inh.% 100 nM ([1]; 100 nM compound, NCI-H295R cells, three days incubation): 60%; Testosterone level in H295R (Elisa) inh.% 1000 nM ([1]; 1000 nM compound, NCI-H295R cells, three days incubation): 83%
18 | O=C(O[C@H]1CCOC1)N1CCC(/C=C/c2coc(CN3Cc4ccc(OC5CC5)cc4C3)cc2=O)CC1 [Compound 48] | 72.4 | 78.5 | –

Row | Compound | inhibition at 0.1 µM [1, 3] [%] | inhibition at 1 µM [1, 4] [%] | further results
19 | CS(=O)(=O)N1CC(OC(=O)N2CCC(COc3coc(CN4Cc5ccc(S(F)(F)(F)(F)F)cc5C4)cc3=O)CC2)C1 [Compound 19] | 64.8 | 78.3 | –
20 | O=C(N[C@H]1CC[C@H](COc2coc(CN3Cc4ccc(C(F)(F)F)cc4C3)cc2=O)CC1)[C@@H]1CC1(F)F [Compound 66] | 78 | 82 | –
21 | O=C(N[C@H]1CC[C@H](COc2coc(CN3Cc4ccc(OC5CC5)cc4C3)cc2=O)CC1)C1CC1 [Compound 34] | – | – | IC50 [1]: 122 nM
22 | C#Cc1ccc2c(c1)CN(Cc1cc(=O)c(OCC3CCN(C(=O)OC4COC4)CC3)co1)C2 [Compound 6] | 79.5 | 90.8 | –
23 | CS(=O)(=O)N1CC(OC(=O)N2CC3C(COc4coc(CN5Cc6ccc(C(F)(F)F)cc6C5)cc4=O)C3C2)C1 (stereo not shown) [Compound 77] | 71 | 84 | –
24 | CS(=O)(=O)N1CCC2(CC1)CC2C(=O)N1CCC(COc2coc(CN3Cc4ccc(C(F)(F)F)cc4C3)cc2=O)CC1 (single isomer, unassigned) [Compound 69] | 62 | 76 | –
25 | C#CCCS(=O)(=O)N1CCC(COc2coc(CN3Cc4ccc(C(F)(F)F)cc4C3)cc2=O)CC1 [Compound 12] | 85.6 | 83.4 | –
26 | CS(=O)(=O)N[C@H]1C[C@H](C(=O)N2CCC(COc3coc(CN4Cc5ccc(C(F)(F)F)cc5C4)cc3=O)CC2)C1 [Compound 72] | 58 | 68 | –
27 | CS(=O)(=O)N1CC(OC(=O)N2CCC(/C=C/c3coc(CN4Cc5ccc(C(F)(F)F)cc5C4)cc3=O)CC2)C1 [Compound 26] | 61 | 78 | –
28 | O=C(C1CC(F)(F)C1)N1CCC(COc2coc(CN3Cc4ccc(C(F)(F)F)cc4C3)cc2=O)CC1 [Compound 73] | 83 | 87 | –
29 | O=C(CC1CC1)N1CCC(/C=C/c2coc(CN3Cc4ccc(C5CC5)cc4C3)cc2=O)CC1 [Compound 16] | 55 | 79.6 | IC50 [1]: 98.3 nM
30 | CS(=O)(=O)N1CC(OC(=O)N2CC(COc3coc(CN4Cc5ccc(C(F)(F)F)cc5C4)cc3=O)C2)C1 [Compound 60] | 57.7 | 78.5 | –
31 | CS(=O)(=O)N1CC(OC(=O)N2CCC(COc3coc(CN4Cc5ccc(OC6CC6)cc5C4)cc3=O)CC2)C1 [Compound 25] | 56 | 77 | –
32 | O=C(N[C@H]1CC[C@H](CCc2coc(CN3Cc4ccc(C(F)(F)F)cc4C3)cc2=O)CC1)[C@@H]1CC1(F)F [Compound 112] | 74 | 78 | –
33 | O=c1cc(CN2Cc3ccc(C(F)(F)F)cc3C2)occ1OC[C@H]1CC[C@@H](NS(=O)(=O)CC2CC2)CC1 [Compound 10] | 63 | 79.7 | –
34 | O=c1cc(CN2Cc3ccc(C(F)(F)F)cc3C2)occ1OC[C@H]1CC[C@H](NS(=O)(=O)c2ccsc2)CC1 [Compound 68] | 81 | 86 | –
35 | O=C(N[C@H]1CC[C@@H](COc2coc(CN3Cc4ccc(C(F)(F)F)cc4C3)cc2=O)CC1)C1CC1(F)F (stereo partly shown) [Compound 55] | 63 | 72.7 | –
36 | O=C(OC1CC1)N1CC(/C=C/c2coc(CN3Cc4ccc(C(F)(F)F)cc4C3)cc2=O)C1 [Compound 53] | 61 | 67.3 | –
